What all share (settings): 10 mM Tris-HCl, pH 7.4
The subject of assay [1] is DNA aptamer or structured DNA GGGACGACAGGGATTCGGTCTTGGAACAAAGGGGCCTCGTCTGTCGTCCC
Assay [2] concerns DNA aptamer or structured DNA GGGACGACCCGTAGGGGTACACGCTCTATAGGGGCTGGGTCGTCCC
Assay [3] deals with DNA aptamer or structured DNA GGGACGACCGGACTTGGGTGGGTGCTGGGGCTTGGGCGGTCGTCCC
Assay [4] relates to DNA aptamer or structured DNA CTTACGACGGGTTCAGAGGGTCAACGGTGGTGTTGTCGTCGTAAG
Assay [5] has as its system DNA aptamer or structured DNA GGGACGACTAGCGGTGTTGGTCGGAGTGGTGGAATCTAGTCGTCCC
Assay [6] relates to DNA aptamer or structured DNA CTTACGACCGACTTTTGGGTGTTCTGGGTGGGATGTGGGTCGTAAG
Assay [7] relates to DNA aptamer or structured DNA CTTACGACCGGTGGGGAGGCCGGAGTTGGGAACGGGGGGTCGTAAG
Assay [8] relates to DNA aptamer or structured DNA GGGACGACAGCTTGGTTTGGTCGGGGTAGGGTTCGGATGTCGTCCC
The test system of assay [9] is DNA aptamer or structured DNA GGGACGACAGGGATTCGGTTCTCGATAAGTAGTGCCTCGTACGTCGTCCC
Assay [10] concerns DNA aptamer or structured DNA GGGACGACGCGTAGGTTTCCTAGCTGTGCGTCGTTCAAGTCGTCCC
The test system of assay [11] is DNA aptamer or structured DNA GGGACGACGGGGATTCGGTTCGTCATTTGGCAGTGCCTCGTCTGTCGTCCC
For assay [12], the system named is DNA aptamer or structured DNA GGGACGACGAGGGCACGTCTGTGTGCAGGGTTTCGCGCGTCGTCCC
For assay [13], the system named is DNA aptamer or structured DNA CTTACGACTAGGTGGGGGTCGGCGCCGTAGGTGGGGTAGTCGTAAG
The test system of assay [14] is DNA aptamer or structured DNA GGGACGACATGGGATACCAGAGTCCTGGGATGTGGTGTGTCGTCCC
Assay [15] relates to DNA aptamer or structured DNA GGGACGACGAGTGCGGGGAGTGTGTTTCTGTGGGGGTCGTCGTCCC
In assay [16] the test system is DNA aptamer or structured DNA GGGACGACGCGTACTTCCAGTAGCCGTGCGTCGTTCAAGTCGTCCC
The subject of assay [17] is DNA aptamer or structured DNA GGGACGACATGGGATGGAGCTATGCGAGCATGTGGTGTGTCGTCCC
The subject of assay [18] is DNA aptamer or structured DNA GGGACGACGCGTACCTGTGGTAGTCGTACGTCGTTCAAGTCGTCCC
Assay [19] has as its system DNA aptamer or structured DNA GGGACGACTAGCCCGGCGTTGTTCGAGTGCAGCGAGTAGTCGTCCC
Assay [20] relates to DNA aptamer or structured DNA GGGACGACGCGTACCTGTGGTAGTTGTACGTCGTTCAAGTCGTCCC
In assay [21] the test system is DNA aptamer or structured DNA GGGACGACCGTTGTTCGAGCCTTGAGTACCATTGGTAGGTCGTCCC
The subject of assay [22] is DNA aptamer or structured DNA GGGACGACAGAATGGCAGCATTGGTGAGTTGTTTGCCTGTCGTCCC
Assay [23] relates to DNA aptamer or structured DNA GGGACGACGGCTTAGCAAAGCTAGTAGGGGTCCACGCTGTCGTCCC
The test system of assay [24] is DNA aptamer or structured DNA GGGACGACGCCGGCTTTTAGGGGGGGTGTGGGTGGCGAGTCGTCCC
Assay [25] concerns DNA aptamer or structured DNA CTTACGACATCTGCGTGTGGCCGGTGTGAGGGAGGGATGTCGTAAG
Assay [26] concerns DNA aptamer or structured DNA GGGACGACTAGCGCATGCGTTGTTCGAGGATACGAGTAGTCGTCCC
Assay [27] deals with DNA aptamer or structured DNA GGGACGACGGGGGGAGTTTGTTTGTGTGGGAGGGTCCAGTCGTCCC
The test system of assay [28] is DNA aptamer or structured DNA GGGACGACGCAGCAGTCCATCTCTCAGCGAGTTCGTCAGTCGTCCC

What is called Kd is the constant that tells how readily two partners part at equilibrium. A high value points to weaker binding.
Throughout, for binding call: call rule not given here.

With `CN(C)CCOC(c1ccccc1)c1ccccc1`, the binding call in assay [1], in [2], in assay [3], in assay [4], in assay [5] and in assay [6] was “no binding” in each case. Also, the binding call was “no binding” in assay [7]; “binds” in assay [8]; “no binding” in assay [9]; “no binding” in [10]; “no binding” in assay [11].

Regarding `CN1C(=O)CN=C(c2ccccc2)c2cc(Cl)ccc21`, the binding call is “binds” in assay [12]; “no binding” in assay [13]; “no binding” in assay [4]; “no binding” in assay [5]; “no binding” in assay [14]; “no binding” in assay [15].

Take `C=CCN1CC[C@]23c4c5ccc(O)c4O[C@H]2C(=O)CC[C@@]3(O)[C@H]1C5`: the binding call was “no binding” in [16]; “no binding” in [17]; “no binding” in assay [12]; “binds” in assay [2]; “no binding” in assay [3]; “no binding” in assay [18]. Besides, the binding call in assay [14], in assay [9], in assay [10], in assay [19], in [20] and in assay [21] was “no binding” throughout. Further, the binding call in [11] is “no binding”; in assay [22] it was “no binding”; in assay [23], “binds”.

Consider `CC(=O)Oc1ccc2c3c1O[C@H]1[C@@H](OC(C)=O)C=C[C@H]4[C@@H](C2)N(C)CC[C@@]341`, for which the Kd in assay [16] turned out to be 4080 nM; in [12], 3760 nM; in [18], 4520 nM; in assay [10] it was 4570 nM; in assay [19], 2390 nM; in [20], 4130 nM. Besides, the Kd in assay [21] is 2280 nM; in assay [26], 2670 nM. The binding call in assay [24] is “no binding”; in [13] it was “no binding”; in assay [25] it was “binds”; in assay [4], “no binding”; in assay [5], “no binding”; in assay [6] it was “no binding”. Also, the binding call in assay [7] and in [22] was “no binding” each time.

For the compound `COc1ccc2c3c1O[C@H]1C(=O)CC[C@@]4(O)[C@@H](C2)N(C)CC[C@]314`, the Kd is 3190 nM in assay [17]; 1750 nM in [27]; 410 nM in [2]; 1690 nM in assay [3]; 2770 nM in [14]; 2220 nM in [28]. Besides, the Kd in assay [15] came out at 990 nM; in assay [23], 900 nM. For the same compound, the binding call in [24], in assay [13], in assay [5] and in assay [22] was “no binding” in each case.
